Measured values published in patent US20240374581A1, “SALT TYPES OF TRICYCLIC TETRAHYDRO ISOQUINOLINE DERIVATIVE” (JIANGSU HENGRUI PHARMACEUTICALS CO., LTD., priority 2021, published 2024).

How the values were obtained:
[1] = Long-term/accelerated stability; type: physicochemical; conditions: for Crystal form: up to 3 months; for physical and chemical stability (conclusion): long-term/accelerated study for 3 months
[2] = Hygroscopicity study (DVS); type: physicochemical; conditions: 25° C.; for Hygroscopicity grade: 0% RH-80.0% RH; for Hygroscopicity 0% RH-80.0% RH / Hygroscopicity 0.0% RH-95.0% RH: DVS
Experimental: DVS refers to dynamic vapor sorption: The measurement was conducted on SMS DVS Advantage; at 25° C., the humidity was changed as follows: 50%-95%-0%-95%-50%, in steps of 10% (5% for the last step) (specific humidity ranges are shown in corresponding patterns, and those listed here were used in most cases); the criterion was dm/dt≤0.002%.
The measurement was conducted with a Surface Measurement Systems intrinsic at 25° C., starting from 50% humidity in humidity range of 0%-95%, in steps of 10%; the criterion was dM/dT≤0.002% and TMAX of 360 min in two cycles.

[3] = Influencing factor stability study; conditions: for physical and chemical stability (conclusion): influencing factors

**Q.** With O=S(=O)(O)O.[2H]C1([2H])Oc2cc3c(cc2O1)[C@@H](c1ccc(NC2CN(CCCF)C2)cn1)N(CC(F)(F)CO)[C@H](C)C3 [Crystal form A of sulfate] as the compound, how does the “Purity (%) 1 month” value ([1]; 25° C./60% RH) read?
**A.** 98.9%

**Q.** What about the “Purity (%) 2 months” value ([1]; 25° C./60% RH) of the same compound?
**A.** 98.7%

**Q.** What about the “Purity (%) 3 months” value ([1]; 25° C./60% RH) of the same compound?
**A.** 98.8%

**Q.** And the “Purity (%) 7 days” value ([1]; 25° C./60% RH)?
**A.** 99.0%

**Q.** What about the “Purity (%) 14 days” value ([1]; 25° C./60% RH) of the same compound?
**A.** 98.9%

**Q.** And the “Purity (%) Initial” value ([1]; 25° C./60% RH)?
**A.** 98.9%

**Q.** What about the Crystal form ([1]; 25° C./60% RH) of the same compound?
**A.** Unchanged

**Q.** What about the “Purity (%) 1 month” value ([1]; 40° C./75% RH) of the same compound?
**A.** 98.7%

**Q.** What about the “Purity (%) 2 months” value ([1]; 40° C./75% RH) of the same compound?
**A.** 98.2%

**Q.** What about the “Purity (%) 3 months” value ([1]; 40° C./75% RH) of the same compound?
**A.** 98.1%

**Q.** And the “Purity (%) 7 days” value ([1]; 40° C./75% RH)?
**A.** 99.2%

**Q.** What about the “Purity (%) 14 days” value ([1]; 40° C./75% RH) of the same compound?
**A.** 98.9%

**Q.** And the “Purity (%) Initial” value ([1]; 40° C./75% RH)?
**A.** 98.9%

**Q.** And the Crystal form ([1]; 40° C./75% RH)?
**A.** Unchanged

**Q.** And the “physical and chemical stability (conclusion)” value [1]?
**A.** good physical and chemical stability

**Q.** What about the Hygroscopicity grade [2] of the same compound?
**A.** hygroscopic

**Q.** What about the “Crystal form after DVS” value [2] of the same compound?
**A.** Deliquescence

**Q.** And the “Hygroscopicity 0% RH-80.0% RH” value [2]?
**A.** 13.3%

**Q.** What about the “Hygroscopicity 0.0% RH-95.0% RH” value [2] of the same compound?
**A.** 44.1%

**Q.** What about the “Crystal form after DVS” value ([2]; listed as crystal form A) of the same compound?
**A.** deliquesced

**Q.** And the Crystal form ([3]; 40° C., 1 month)?
**A.** Crystal form A

**Q.** What about the “Purity (%)” value ([3]; 40° C., 1 month) of the same compound?
**A.** 98.0%

**Q.** What about the Crystal form ([3]; 40° C., 5 days) of the same compound?
**A.** Crystal form A

**Q.** What about the “Purity (%)” value ([3]; 40° C., 5 days) of the same compound?
**A.** 98.8%

**Q.** And the Crystal form ([3]; 40° C., 10 days)?
**A.** Crystal form A

**Q.** And the “Purity (%)” value ([3]; 40° C., 10 days)?
**A.** 98.7%

**Q.** And the Crystal form ([3]; 60° C., 1 month)?
**A.** Crystal form A

**Q.** What about the “Purity (%)” value ([3]; 60° C., 1 month) of the same compound?
**A.** 97.3%

**Q.** What about the Crystal form ([3]; 60° C., 5 days) of the same compound?
**A.** Crystal form A

**Q.** And the “Purity (%)” value ([3]; 60° C., 5 days)?
**A.** 98.7%

**Q.** What about the Crystal form ([3]; 60° C., 10 days) of the same compound?
**A.** Crystal form A

**Q.** What about the “Purity (%)” value ([3]; 60° C., 10 days) of the same compound?
**A.** 98.6%

**Q.** And the “behaviour under the high-humidity conditions (conclusion)” value ([3]; 75% RH and 92.5% RH, 30 days)?
**A.** deliquesced

**Q.** What about the Crystal form ([3]; 75% RH, 1 month) of the same compound?
**A.** Deliquescence

**Q.** And the “Purity (%)” value ([3]; 75% RH, 1 month)?
**A.** 94.8%

**Q.** And the Crystal form ([3]; 75% RH, 5 days)?
**A.** Deliquescence

**Q.** What about the “Purity (%)” value ([3]; 75% RH, 5 days) of the same compound?
**A.** 97.8%

**Q.** And the Crystal form ([3]; 75% RH, 10 days)?
**A.** Deliquescence

**Q.** And the “Purity (%)” value ([3]; 75% RH, 10 days)?
**A.** 96.6%

**Q.** What about the Crystal form ([3]; 92.5% RH, 1 month) of the same compound?
**A.** Deliquescence

**Q.** And the “Purity (%)” value ([3]; 92.5% RH, 1 month)?
**A.** 95.1%

**Q.** And the Crystal form ([3]; 92.5% RH, 5 days)?
**A.** Deliquescence

**Q.** And the “Purity (%)” value ([3]; 92.5% RH, 5 days)?
**A.** 98.1%

**Q.** And the Crystal form ([3]; 92.5% RH, 10 days)?
**A.** Deliquescence

**Q.** What about the “Purity (%)” value ([3]; 92.5% RH, 10 days) of the same compound?
**A.** 97.3%

**Q.** What about the Crystal form ([3]; 4500 Lux, 1 month) of the same compound?
**A.** Crystal form A

**Q.** And the “Purity (%)” value ([3]; 4500 Lux, 1 month)?
**A.** 92.9%

**Q.** What about the Crystal form ([3]; 4500 Lux, 5 days) of the same compound?
**A.** Crystal form A

**Q.** What about the “Purity (%)” value ([3]; 4500 Lux, 5 days) of the same compound?
**A.** 97.4%

**Q.** What about the Crystal form ([3]; 4500 Lux, 10 days) of the same compound?
**A.** Crystal form A

**Q.** What about the “Purity (%)” value ([3]; 4500 Lux, 10 days) of the same compound?
**A.** 96.0%

**Q.** What about the Crystal form ([3]; Initial, 0 days) of the same compound?
**A.** Crystal form A

**Q.** And the “Purity (%)” value ([3]; Initial, 0 days)?
**A.** 98.9%

**Q.** What about the “physical and chemical stability (conclusion)” value ([3]; 30 days) of the same compound?
**A.** good physical and chemical stability under other conditions except the lighting condition

**Q.** Which “Purity (%) 1 month” value ([1]; 25° C./60% RH) does the source give for O=P(O)(O)O.O=P(O)(O)O.O=P(O)(O)O.[2H]C1([2H])Oc2cc3c(cc2O1)[C@@H](c1ccc(NC2CN(CCCF)C2)cn1)N(CC(F)(F)CO)[C@H](C)C3 [Crystal form I of phosphate] here?
**A.** 99.3%

**Q.** What about the “Purity (%) 2 months” value ([1]; 25° C./60% RH) of the same compound?
**A.** 99.3%

**Q.** What about the “Purity (%) 3 months” value ([1]; 25° C./60% RH) of the same compound?
**A.** 99.2%

**Q.** And the “Purity (%) 7 days” value ([1]; 25° C./60% RH)?
**A.** 99.4%

**Q.** And the “Purity (%) 14 days” value ([1]; 25° C./60% RH)?
**A.** 99.5%

**Q.** And the “Purity (%) Initial” value ([1]; 25° C./60% RH)?
**A.** 99.4%

**Q.** What about the Crystal form ([1]; 25° C./60% RH) of the same compound?
**A.** Unchanged

**Q.** And the “Purity (%) 1 month” value ([1]; 40° C./75% RH)?
**A.** 99.3%

**Q.** What about the “Purity (%) 2 months” value ([1]; 40° C./75% RH) of the same compound?
**A.** 99.2%

**Q.** And the “Purity (%) 3 months” value ([1]; 40° C./75% RH)?
**A.** 99.0%

**Q.** What about the “Purity (%) 7 days” value ([1]; 40° C./75% RH) of the same compound?
**A.** 99.5%

**Q.** What about the “Purity (%) 14 days” value ([1]; 40° C./75% RH) of the same compound?
**A.** 99.5%

**Q.** What about the “Purity (%) Initial” value ([1]; 40° C./75% RH) of the same compound?
**A.** 99.4%

**Q.** What about the Crystal form ([1]; 40° C./75% RH) of the same compound?
**A.** Unchanged

**Q.** And the “physical and chemical stability (conclusion)” value [1]?
**A.** good physical and chemical stability

**Q.** And the Hygroscopicity grade [2]?
**A.** slightly

**Q.** What about the “Crystal form after DVS” value [2] of the same compound?
**A.** Did not change

**Q.** And the “Hygroscopicity 0% RH-80.0% RH” value [2]?
**A.** 1.2%

**Q.** And the “Hygroscopicity 0.0% RH-95.0% RH” value [2]?
**A.** 7.1%

**Q.** And the “Crystal form after DVS” value ([2]; listed as crystal form I)?
**A.** did not change

**Q.** And the Crystal form ([3]; 40° C., 1 month)?
**A.** Crystal form I

**Q.** And the “Purity (%)” value ([3]; 40° C., 1 month)?
**A.** 99.1%

**Q.** What about the Crystal form ([3]; 40° C., 5 days) of the same compound?
**A.** Crystal form I

**Q.** What about the “Purity (%)” value ([3]; 40° C., 5 days) of the same compound?
**A.** 99.3%

**Q.** And the Crystal form ([3]; 40° C., 10 days)?
**A.** Crystal form I

**Q.** What about the “Purity (%)” value ([3]; 40° C., 10 days) of the same compound?
**A.** 99.1%

**Q.** What about the Crystal form ([3]; 60° C., 1 month) of the same compound?
**A.** Crystal form I

**Q.** And the “Purity (%)” value ([3]; 60° C., 1 month)?
**A.** 98.8%

**Q.** And the Crystal form ([3]; 60° C., 5 days)?
**A.** Crystal form I

**Q.** And the “Purity (%)” value ([3]; 60° C., 5 days)?
**A.** 99.1%

**Q.** What about the Crystal form ([3]; 60° C., 10 days) of the same compound?
**A.** Crystal form I

**Q.** What about the “Purity (%)” value ([3]; 60° C., 10 days) of the same compound?
**A.** 99.1%

**Q.** And the Crystal form ([3]; 75% RH, 1 month)?
**A.** Crystal form I

**Q.** And the “Purity (%)” value ([3]; 75% RH, 1 month)?
**A.** 99.4%

**Q.** And the Crystal form ([3]; 75% RH, 5 days)?
**A.** Crystal form I

**Q.** What about the “Purity (%)” value ([3]; 75% RH, 5 days) of the same compound?
**A.** 99.3%

**Q.** What about the Crystal form ([3]; 75% RH, 10 days) of the same compound?
**A.** Crystal form I

**Q.** And the “Purity (%)” value ([3]; 75% RH, 10 days)?
**A.** 99.4%

**Q.** What about the Crystal form ([3]; 92.5% RH, 1 month) of the same compound?
**A.** Crystal form I

**Q.** What about the “Purity (%)” value ([3]; 92.5% RH, 1 month) of the same compound?
**A.** 99.3%

**Q.** What about the Crystal form ([3]; 92.5% RH, 5 days) of the same compound?
**A.** Crystal form I

**Q.** What about the “Purity (%)” value ([3]; 92.5% RH, 5 days) of the same compound?
**A.** 99.3%

**Q.** What about the Crystal form ([3]; 92.5% RH, 10 days) of the same compound?
**A.** Crystal form I

**Q.** And the “Purity (%)” value ([3]; 92.5% RH, 10 days)?
**A.** 99.3%

**Q.** And the Crystal form ([3]; 4500 Lux, 1 month)?
**A.** Crystal form I

**Q.** What about the “Purity (%)” value ([3]; 4500 Lux, 1 month) of the same compound?
**A.** 98.4%

**Q.** And the Crystal form ([3]; 4500 Lux, 5 days)?
**A.** Crystal form I

**Q.** And the “Purity (%)” value ([3]; 4500 Lux, 5 days)?
**A.** 98.9%

**Q.** What about the Crystal form ([3]; 4500 Lux, 10 days) of the same compound?
**A.** Crystal form I

**Q.** What about the “Purity (%)” value ([3]; 4500 Lux, 10 days) of the same compound?
**A.** 98.8%

**Q.** What about the Crystal form ([3]; Initial, 0 days) of the same compound?
**A.** Crystal form I

**Q.** What about the “Purity (%)” value ([3]; Initial, 0 days) of the same compound?
**A.** 99.4%

**Q.** What about the “physical and chemical stability (conclusion)” value ([3]; 30 days) of the same compound?
**A.** good physical and chemical stability
